Results reported in patent publication US20030166161A1, “Gene that imparts selective proliferative activity” (priority 1997, published 2003).

How the values were obtained:
Parental Ba/F3 cells = test: XTT proliferation assay of parental Ba/F3 cells; format: cell-based; conditions: IL-3, 10^−9 M G-CSF, 10^−7 M Tm, 10^−7 M E2; FIG. 17A
Protocol: (§1) Cultures containing IL-3 or G-CSF were split every three to four days, while Tm-containing cultures were diluted every four days. Cell proliferation assay was performed periodically in 96-well microtiter plates by the 2,3-bis (2-methoxy-4-nitro-5-sulfophenyl)-5-[(phenylamino)-carbonyl]-2H-tetrazolium hydroxide (XTT) method using Cell Proliferation Kit II (Boehringer Mannheim, Mannheim, Germany) [Scudiero D A, et al., Cancer Res., (1988) 48: 4827-4833]. For hormone dose-response analysis, transduced Ba/F3 cells were stimulated by various concentrations of Tm or E2, and XTT assay was performed on day zero and day four. The final concentration of ethanol used to dilute Tm and E2 was 0.1% in all the culture conditions.

BaF/ΔGCRTmR clones = test: XTT proliferation assay of BaF/ΔGCRTmR clones; format: cell-based; conditions: 10^−9 M G-CSF or 10^−7 M Tm; FIG. 17E-G
Protocol: as §1

BaF/GCRTmR clones = test: XTT proliferation assay of BaF/GCRTmR clones; format: cell-based; conditions: for growth of GCRTmR-transduced Ba/F3 cells with stimulator: IL-3, 10^−9 M G-CSF, 10^−7 M Tm or 10^−7 M E2, FIG. 17B-D
Protocol: as §1

[1] = tested on: parental and transduced Ba/F3 cultures; test: Toxicity of E2 or Tm in Ba/F3 cultures with IL-3; conditions: concentrations up to 10^−6 M
Protocol: as §1

GCRER-expressing Ba/F3 = conditions: Ito K, et al., Blood (1997), cited from earlier work
[2] = tested on: Ba/F3 cells into which pCMX-GCRΔ(5-195)/ER was introduced; test: XTT proliferation assay, Ba/F3 cells with pCMX-GCRΔ(5-195)/ER; format: cell-based; conditions: G-CSF or estradiol stimulation, FIG. 5
Description: The Ba/F3 cells into which “pCMX-GCRΔ(5-195)/ER” was introduced were then examined.

[3] = tested on: Ba/F3 cells into which pCMX-GCRER was introduced; test: XTT proliferation assay, Ba/F3 cells with pCMX-GCRER; format: cell-based; conditions: for proliferation of IL-3-independent cells by stimulation: stimulation with G-CSF or estradiol, FIG. 3
Description: The Ba/F3 cells into which “pCMX-GCRER” was introduced were examined.

[4] = tested on: Ba/F3 cells into which pCMX-GRΔ(5-195, 725-756)/ER was introduced; test: XTT proliferation assay, Ba/F3 cells with pCMX-GCRΔ(5-195, 725-756)/ER; format: cell-based; conditions: estrogen or G-CSF stimulation
Ba/F3 cells = test: MTS cell proliferation assay of Ba/F3 cells transduced with Mpl chimeric genes; format: cell-based
Protocol: BOSC23 cells were transfected with MSCV/ΔGCR-ER orMSCV/Mpl-ER or MSCV/ΔGCR-Mpl-ER or MSCV/ΔGCR-Mpl-TmR-IRES-EGFP using Transfection MBS Mammalian Transfection Kit (Stratagene) and the viral supernatants were harvested on day two post-transfection. Fibronectin-assisted transduction of IL3-dependentBa/F3 cells was carried out on 6-well plates precoated with CH296 fibronectin fragment (Retronectin; Takara Shuzo) according to a standard procedure. After retroviral infection, ΔGCR-Mpl-TmR-IRES-EGFP transduced Ba/F3 cells (BaF/ΔGCR-Mpl-TmR) were selected with EPICS Elite ESP Cell Sorter. GFP-positive cells were […] and were cloned by limiting dilution with 10^−7 M 4-hydroxytamoxifen (Tm).
Cell proliferation assay was periodically performed using CellTier 96 Aqueous One Solution Cell Proliferation Assay {3-(4,5-dimethylthiazol-2-yl)-5-(3-carboxymethoxyphenyl)-2-(4-sulfophenyl)-2H-tetrazolium (MTS); Promega, Madison, Wis.} essentially according to the manufacturer's instruction. In brief, 20 μl per well of MTS-labeling mixture was added. After the incubation at 37° C. for 2 hours, the spectrophotometeical absorbance was measured at the wave length of 490 nm and 650 nm.

[5] = XTT day four vs day zero, FIG. 19

## 4-hydroxytamoxifen [Tm]
Parental Ba/F3 cells
  support of untransduced Ba/F3 by stimulator: did not support
BaF/ΔGCRTmR clones
  growth of BaF/ΔGCRTmR clones with stimulator: proliferated
BaF/GCRTmR clones
  optimal concentration of Tm to stimulate BaF/GCRTmR: 10^−7-10^−6 M
  growth of GCRTmR-transduced Ba/F3 cells with stimulator: grew continuously
BaF/GCRTmR clones; BaF/GCRTmR clone 3, 10 M Tm as printed
  response to 10 M Tm, clone 3: partially responded
BaF/GCRTmR clones; [5]
  Tm concentration at which all three clones grew well: 10^−7-10^−6 M
BaF/GCRTmR clones; long-term culture without IL-3, FIG. 18
  time until cells stopped growing and died upon removal of Tm: ≤ 24 h
BaF/GCRTmR clones; without IL-3, FIG. 18
  time Tm alone could support the cells in long-term culture: at least 36 days
[1]
  toxic effects: neither reagent showed toxic effects

## C[C@]12CC[C@@H]3c4ccc(O)cc4CC[C@H]3[C@@H]1CC[C@@H]2O [estradiol, β-estradiol]
Parental Ba/F3 cells
  support of untransduced Ba/F3 by stimulator: did not support
GCRER-expressing Ba/F3
  E2 concentration inducing proliferation of GCRER-expressing Ba/F3: ≥ 10^−10 M
GCRER-expressing Ba/F3; previous study
  E2 dose optimal to support Ba/F3 cells expressing GCRER or ΔGCRER: 10^−7 M
[2]
  cell proliferation by stimulation: caused cell proliferation
BaF/GCRTmR clones; BaF/GCRTmR clone 3, 10^−6 M E2
  response to 10^−6 M E2, clone 3: limited response
BaF/GCRTmR clones; BaF/GCRTmR clones 1 and 2, 10^−6 M E2
  response to 10^−6 M E2, the other clones: inert
BaF/GCRTmR clones
  growth of GCRTmR-transduced Ba/F3 cells with stimulator: had no effect
BaF/GCRTmR clones; [5]
  E2 concentration up to which no growth was observed: up to 10^−7 M
[3]; estradiol varied between 10^−14 and 10^−7 M, FIG. 4
  estradiol concentrations at which cell proliferation was observed: 10^−9 to 10^−7 M
[3]
  proliferation of IL-3-independent cells by stimulation: proliferated
[4]
  cell proliferation by stimulation: cell proliferation was caused

B1: Mpl-ER: fusion protein between Mpl and ER (protein)
chain: QDVSLLASDSEPLKCFSRTFEDLTCFWDEEEAAPSGTYQLLYAYPREKPRACPLSSQSMPHFGTRYVCQFPDQEEVRLFFPLHLWVKNVFLNQTRTQRVLFVDSVGLPAPPSIIKAMGGSQPGELQISWEEPAPEISDFLRYELRYGPRDPKNSTGPTVIQLIATETCCPALQRPHSASALDQSPCAQPTMPWQDGPKQTSPSREASALTAEGGSCLISGLQPGNSYWLQLRSEPDGISLGGSWGSWSLPVTVDLPGDAVALGLQCFTLDLKNVTCQWQQQDHASSQGFFYHSRARCCPRDRYPIWENCEEEEKTNPGLQTPQFSRCHFKSRNDSIIHILVEVTTAPGTVHSYLGSPFWIHQAVRLPTPNLHWREISSGHLELEWQHPSSWAAQETCYQLRYTGEGHQDWKVLEPPLGARGGTLELRPRSRYRLQLRARLNGPTYQGPWSSWSDPTRVETATETAWISLVTALHLVLGLSAVLGLLLLRWQFPAHYRRLRHALWPSLPDLHRVLGQYLRDTAALSPPKATVSDTCEEVEPSLLEILPKSSERTPLPLCSSQAQMDYRRLQPSCLGTMPLSVCPPMAESGSCCTTHIANHSYLPLSYWQQPGTSGDMRAANLWPSPLVIKHTKKNSPALSLTADQMVSALLDAEPPLIYSEYDPSRPFSEASMMGLLTNLADRELVHMINWAKRVPGFGDLNLHDQVHLLECAWLEILMIGLVWRSMEHPGKLLFAPNLLLDRNQGKCVEGMVEIFDMLLATSSRFRMMNLQGEEFVCLKSIILLNSGVYTFLSSTLKSLEEKDHIHRVLDKINDTLIHLMAKAGLTLQQQHRRLAQLLLILSHIRHMSNKGMEHLYNMKCKNVVPLYDLLLEMLDAHRLHAPASRMGVPPEEPSQSQLTTTSSTSAHSLQTYYIPPEAEGFPNTI
Ba/F3 cells; 100 ng/ml rhTPO
  growth response to TPO in the absence of IL-3: acquired the ability to proliferate
Ba/F3 cells; 10^−7M β-estradiol
  growth response to estrogen (E2) in the absence of IL-3: acquired the ability to proliferate

B2: G-CSF: cytokine (hematopoietic factor); human G-CSF provided by Chugai Pharmaceuticals (protein)
chain: TPLGPASSLPQSFLLKCLEQVRKIQGDGAALQEKLCATYKLCHPEELVLLGHSLGIPWAPLSSCPSQALQLAGCLSQLHSGLFLYQGLLQALEGISPELGPTLDTLQLDVADFATTIWQQMEELGMAPALQPTQGAMPAFASAFQRRAGGVLVASHLQSFLEVSYRVLRHLAQP
Parental Ba/F3 cells
  support of untransduced Ba/F3 by stimulator: did not support
[2]
  cell proliferation by stimulation: blocked
BaF/ΔGCRTmR clones
  growth of BaF/ΔGCRTmR clones with stimulator: did not respond
BaF/GCRTmR clones
  growth of GCRTmR-transduced Ba/F3 cells with stimulator: grew continuously
[3]
  proliferation of IL-3-independent cells by stimulation: proliferated
[4]
  cell proliferation by stimulation: no response
